pIC50: −log10 of the molar value.
How the values were obtained:
Format in all cases: cell-based
[1] = test system: Endogenous Target Genes for Wnt & Apoptotic Pathways in MDA-MB 231; test: qPCR of Wnt and pro-apoptotic target genes, MDA-MB 231; design: concentration or dose not given beside the values; conditions: MDA-MB 231, 24 hrs, qPCR normalized to 36B4
Experimental: (§1) Given the effects of Compounds 1, 4, and 15 on biological functions (e.g., proliferation, viability, and apoptosis) in several cancer cell lines, we tested the effects of compounds 1, 4, and 15 on regulation of endogenous Wnt and pro-apoptotic gene expression. MDA-MB-231, MCF-7, PC-3, and HCT-116 cancerncells were treated with the indicated compounds for 24 hrs. over a dose range from 1.6 to 5000 nM. Gene expression was measured using qPCR, normalized to the housekeeping gene, 36B4, and calculated % change relative to DMSO control. NC, no change.

[2] = test system: MDA-MB-231; test: viability (Alamar Blue), MDA-MB-231; conditions: Homo sapiens; MDA-MB-231, 24 hrs
Experimental: (§2) Given Compounds 1, 4, and 15 inhibited cancer cell proliferation and stimulated apoptosis, we tested the effects compounds 1, 4, and 15 on cancer cell viability and cytotoxicity. The MDA-MB-231, MCF-7, PC-3, and HCT-116 cells were treated with the indicated compounds for 24 hrs. over a dose range from 1.6 to 5000 nM. Viability and cytotoxicity were then measured by the Alamar Blue and Vibrant Cytotox assays respectively.

[3] = test system: Endogenous Target Genes for Wnt & Apoptotic Pathways in LNCAP; test: qPCR of Wnt and pro-apoptotic target genes, LNCAP; design: MYC expression, % change relative to DMSO control / CCDN1 expression, % change relative to DMSO control / BAX expression, % change relative to DMSO control / BAK expression, % change relative to DMSO control / BBC3 expression, % change relative to DMSO control / FOS expression, % change relative to DMSO control: concentration or dose not given beside the values; conditions: 24 hrs, qPCR normalized to 36B4
[4] = cytotoxicity (Vibrant Cytotox assay), HCT-116; conditions: human, HCT-116 cells; HCT-116, 24 hrs
Experimental: as §2

[5] = test system: HCT-116; test: inhibition of proliferation (PicoGreen DNA assay), HCT-116; conditions: Homo sapiens
Experimental: (§3) We tested a subset of the 50 sulfonamide analogues for inhibition of proliferation of the MDA-MB-231, PC-3, MCF-7, and HCT-116 cancer cell lines. Following plating of the cells (24 hrs) in eight identical 96-well plates, the cells were treated with either Compound 1, 4, 15, or vehicle (DMSO) using a dose range of 1.6 to 5000 nM. After the lysis of cells, the cell lysate was resuspended in 25 μl PBS and the DNA was quantified using a PicoGreen assay by measuring fluorescence at Ex490 nm/Em535 nm. Cell proliferation was inhibited by Compounds 1, 4, and 15 for all the cancer cell lines tested with inhibition constants listed in Table 2.

[6] = test system: Endogenous Target Genes for Wnt & Apoptotic Pathways in MCF-7; test: qPCR of Wnt and pro-apoptotic target genes, MCF-7; design: MYC expression, % change relative to DMSO control / BAX expression, % change relative to DMSO control / BAK expression, % change relative to DMSO control / BBC3 expression, % change relative to DMSO control / FOS expression, % change relative to DMSO control: concentration or dose not given beside the values; conditions: MCF-7, 24 hrs, qPCR normalized to 36B4
Experimental: as §1

[7] = test system: Endogenous Target Genes for Wnt & Apoptotic Pathways in PC-3; test: qPCR of Wnt and pro-apoptotic target genes, PC-3; design: concentration or dose not given beside the values; conditions: PC-3, 24 hrs, qPCR normalized to 36B4
Experimental: as §1

[8] = test system: Endogenous Target Genes for Wnt & Apoptotic Pathways in HCT-116; test: qPCR of Wnt and pro-apoptotic target genes, HCT-116; design: MYC expression, % change relative to DMSO control / CCDN1 expression, % change relative to DMSO control / BAX expression, % change relative to DMSO control / BBC3 expression, % change relative to DMSO control / FOS expression, % change relative to DMSO control: concentration or dose not given beside the values; conditions: HCT-116, 24 hrs, qPCR normalized to 36B4
Experimental: as §1

[9] = test system: MDA-MB-231; test: inhibition of proliferation (PicoGreen DNA assay), MDA-MB-231; conditions: Homo sapiens
Experimental: as §3

[10] = test system: PC-3; test: inhibition of proliferation (PicoGreen DNA assay), PC-3; conditions: Homo sapiens
Experimental: as §3

[11] = cytotoxicity (Vibrant Cytotox assay), LNCap; conditions: human, LNCap cells
[12] = test system: HCT-116 and MCF-7 cancer cells; p53 −/− isogenic HCT-116 cells; test: morphology change of cancer cells with and without p53
Text: Using the same treatment conditions, this morphology change was not observed in […] cells lacking p53 (i.e., −/− p53, isogenic HCT-116 cells) highlighting the integral importance of p53 protein in the mechanism of action of the disclosed compounds.

[13] = test system: LNCap; test: viability (Alamar Blue), LNCap; conditions: Homo sapiens, 24 hrs
[14] = test system: HCT-116; test: viability (Alamar Blue), HCT-116; conditions: Homo sapiens; HCT-116, 24 hrs
Experimental: as §2

[15] = cytotoxicity (Vibrant Cytotox assay), MDA-MB-231; conditions: human, MDA-MB-231 cells; MDA-MB-231, 24 hrs
Experimental: as §2

[16] = test system: HCT-116; test: stimulation of apoptosis, Caspase 3/7 cleavage (Caspase-Glo Kit), HCT-116; conditions: Homo sapiens, HCT-116, 24 hrs
Experimental: Given Compounds 1, 4, and 15 inhibited cancer cell proliferation, we tested whether compounds 1, 4, and 15 stimulated cancer cell apoptosis. The MDA-MB-231, MCF-7, PC-3, and HCT-116 cells were treated with the indicated compounds for 24 hrs. over a dose range from 1.6 to 5000 nM. Apoptosis was then measured by monitoring Caspase 3/7 cleavage (Caspase-Glo Kit).

For `O=C1CCCN1c1ccc(S(=O)(=O)N2CCCc3ccccc32)cc1` [Compound 1, 1-(4-(3,4-dihydroquinolin-1(2H)-ylsulfonyl)phenyl)pyrrolidin-2-one], the “BAK expression, % change relative to DMSO control” value [1] was −42%, the “BAX expression, % change relative to DMSO control” value [1] was −70% and the “BBC3 expression, % change relative to DMSO control” value [1] was −78%. The “CCDN1 expression, % change relative to DMSO control” value [1] was −72%, the “JUN expression, % change relative to DMSO control” value [1] was −50% and the “MYC expression, % change relative to DMSO control” value [1] was −70%. The pIC50 [2] was 7.46, the “BAK expression, % change relative to DMSO control” value [3] was −22% and the “BAX expression, % change relative to DMSO control” value [3] was −30%. For the same molecule, the “BBC3 expression, % change relative to DMSO control” value [3] was −90%, the “CCDN1 expression, % change relative to DMSO control” value [3] was −10% and the “FOS expression, % change relative to DMSO control” value [3] was −15%. For the same molecule, the “MYC expression, % change relative to DMSO control” value [3] was −35%, the IC50 at 24 h [4] was greater than 5000 nM and the pIC50 [5] was 7.40. For the same molecule, the “BAK expression, % change relative to DMSO control” value [6] was −10%, the “BBC3 expression, % change relative to DMSO control” value [6] was −55% and the “CCDN1 expression, % change relative to DMSO control” value [6] was “+50%”. The “FOS expression, % change relative to DMSO control” value [6] was −70%, the “JUN expression, % change relative to DMSO control” value [6] was “+125%” and the “MYC expression, % change relative to DMSO control” value [6] was −25%. The “BAK expression, % change relative to DMSO control” value [7] was −20%, the “BAX expression, % change relative to DMSO control” value [7] was “+5%” and the “BBC3 expression, % change relative to DMSO control” value [7] was −38%. The “CCDN1 expression, % change relative to DMSO control” value [7] was “+10%”, the “FOS expression, % change relative to DMSO control” value [7] was “+75%” and the “JUN expression, % change relative to DMSO control” value [7] was “+75%”. The “MYC expression, % change relative to DMSO control” value [7] was “+25%”, the “BAK expression, % change relative to DMSO control” value [8] was “+75%” and the “BAX expression, % change relative to DMSO control” value [8] was “+5%”. For the same molecule, the “BBC3 expression, % change relative to DMSO control” value [8] was −80%, the “CCDN1 expression, % change relative to DMSO control” value [8] was “+40%” and the “FOS expression, % change relative to DMSO control” value [8] was −70%. For the same molecule, the “JUN expression, % change relative to DMSO control” value [8] was “+525%”, the “MYC expression, % change relative to DMSO control” value [8] was −45% and the pIC50 [9] was 7.00. The pIC50 [10] was 7.70, the IC50 at 24 h [11] was greater than 5000 nM and the “morphology change in cancer cells with wild-type and mutant p53” value ([12]; HCT-116 and MCF-7, 500 nM for 24 hours) was “morphology change from a flat adherent cell to a rounded non-adherent one”. The “morphology change in cells lacking p53” value ([12]; −/− p53 isogenic HCT-116 cells, 500 nM for 24 hours) was “not observed”, the pIC50 [13] was 7.05 and the pIC50 [14] was 7.52. For the same molecule, the IC50 at 24 h [15] was greater than 5000 nM and the pIC50 [16] was 7.02.

Reference: patent US9403800B2, “Compounds for inhibition of cancer cell proliferation” (ChemRegen, Inc., priority 2012, dated 2016)
